Measured values taken from US10428080B2, “TBK/IKK inhibitor compounds and uses thereof” (Merck Patent GmbH, priority 2015, dated 2019).
Where a name gives a salt, the structure may show the parent alone.

How the values were obtained:
[1] = test system: phosphorylation of the IRF-3 protein in MDA-MB-468 cells; test: pIRF3 immunocytochemistry cell based assay; settings: Homo sapiens; MDA-MB-468 cells, Poly(I:C) stimulation; read-out: pIRF3 IC50
Procedure: The purpose of the pIRF3 immunocytochemistry cell based assay was to identify small molecules which modulates TBK/IKKe kinase activity through on target substrate phosphorylation of the IRF-3 protein. On the first day of the experiment, MDA-MB-468 cells were plated in 384 well, black, clear-bottom, Poly D lysine coated plates at a density of 5000 cells/well in 45 ul of complete DMEM and allowed to adhere overnight. On the second day compounds were added to cells at a starting concentration of 10 uM with a serial dilution of 3-fold for a total of 10 points. The cells were incubated for 1 hr at 37° C. Cells were then stimulated with Poly(I:C) at a final concentration of 10 ug/ml, and were incubated for 2 hr at 37° C. Following the incubation, media was removed from the wells and the cells were fixed with 4% PFA for 15 min at RT. Cells were washed at least 3 times with PBS, and then permeabilized with ice-cold methanol for 10 min at RT. The washing step was repeated and the cells were then blocked using 10% goat serum/1% BSA, made up in PBS and allowed to incubate at RT for 1 hr. The cells were washed again and then treated with an anti-pIRF3 antibody at 4° C. overnight (1:250 dilution of Abcam ab76493 in PBS containing 1% BSA). On the third day the primary antibody was washed off and pIRF3 was detected by adding the secondary antibody conjugated to AlexaFluor488 (1:200 dilution of secondary antibody in PBS containing 1% BSA) for 1 hr at RT. Cells were washed and then counterstained with PI/RNase staining buffer for 15 min at RT and read on the Acumen Explorer laser scanning cytometer. The percentage of phosphorylation of the IRF-3 protein was calculated using the following algorithm, a modified version of the mean half width intensity (pIRF3 staining)/(PI staining or # of cells)×100%). IC50 curves were generated using the Genedata software.

TBK1 = molecular target: T1, TBK1 (Homo sapiens, UniProt Q9UHD2); test: TBK Biochemical Assay; settings: read-out: TBK1 IC50
T1 sequence (Q9UHD2 1-729): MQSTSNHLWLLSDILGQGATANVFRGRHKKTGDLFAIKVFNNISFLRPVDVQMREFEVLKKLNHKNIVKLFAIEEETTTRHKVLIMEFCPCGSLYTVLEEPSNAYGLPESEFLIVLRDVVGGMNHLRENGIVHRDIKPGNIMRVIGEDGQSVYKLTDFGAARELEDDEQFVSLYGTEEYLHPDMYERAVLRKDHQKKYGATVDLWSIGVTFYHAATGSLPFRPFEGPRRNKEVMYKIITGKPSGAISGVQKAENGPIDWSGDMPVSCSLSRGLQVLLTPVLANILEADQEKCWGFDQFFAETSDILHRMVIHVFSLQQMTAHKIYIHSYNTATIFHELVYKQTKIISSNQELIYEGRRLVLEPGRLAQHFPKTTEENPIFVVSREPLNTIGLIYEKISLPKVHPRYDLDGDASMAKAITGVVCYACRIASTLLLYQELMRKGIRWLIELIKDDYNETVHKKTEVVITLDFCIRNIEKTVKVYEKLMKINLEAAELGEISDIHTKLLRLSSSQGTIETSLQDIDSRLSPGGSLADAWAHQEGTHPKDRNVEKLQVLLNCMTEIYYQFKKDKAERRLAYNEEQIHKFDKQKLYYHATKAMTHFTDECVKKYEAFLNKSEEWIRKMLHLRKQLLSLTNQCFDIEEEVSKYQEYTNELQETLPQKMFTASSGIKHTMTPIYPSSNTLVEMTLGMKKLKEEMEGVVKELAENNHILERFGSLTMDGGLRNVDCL
Procedure, shortened: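 TBK1 enzyme and substrate incubated with compounds (10-point 1:4 dilution, top 30 uM final, 1% DMSO) for 90 min at 25° C, then stopped. Substrate/product peaks read by microfluidic mobility-shift (Caliper LabChip); 10 uM staurosporine as full-inhibition control.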

IKKε = molecular target: T2, IKKε (Homo sapiens, UniProt Q14164); test: IKKe Biochemical Assay; settings: read-out: IKKε IC50
T2 sequence (Q14164 1-716): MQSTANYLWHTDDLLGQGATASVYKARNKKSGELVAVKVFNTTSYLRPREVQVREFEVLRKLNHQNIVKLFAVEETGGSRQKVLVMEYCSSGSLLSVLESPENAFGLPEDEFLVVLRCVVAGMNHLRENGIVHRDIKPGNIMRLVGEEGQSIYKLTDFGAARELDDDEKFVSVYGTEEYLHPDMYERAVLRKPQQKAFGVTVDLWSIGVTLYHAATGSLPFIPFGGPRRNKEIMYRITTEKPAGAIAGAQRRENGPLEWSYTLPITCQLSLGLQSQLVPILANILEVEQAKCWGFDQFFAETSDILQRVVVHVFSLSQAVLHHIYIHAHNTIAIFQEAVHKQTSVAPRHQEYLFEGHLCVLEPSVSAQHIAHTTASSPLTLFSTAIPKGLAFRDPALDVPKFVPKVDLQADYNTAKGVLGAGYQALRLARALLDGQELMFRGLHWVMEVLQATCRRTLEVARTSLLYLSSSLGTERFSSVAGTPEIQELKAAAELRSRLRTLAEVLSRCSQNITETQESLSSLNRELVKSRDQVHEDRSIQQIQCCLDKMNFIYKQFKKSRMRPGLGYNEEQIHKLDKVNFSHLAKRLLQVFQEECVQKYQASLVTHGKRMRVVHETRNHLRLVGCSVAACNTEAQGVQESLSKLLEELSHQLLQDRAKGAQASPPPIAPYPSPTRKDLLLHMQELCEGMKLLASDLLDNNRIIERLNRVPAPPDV
Procedure, shortened: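 Recombinant IKKε and substrate were incubated with compound (10-point 1:4 series, top 30 uM final, 1% DMSO) for 90 min at 25° C, then stopped. Substrate-to-product conversion was read by LabChip microfluidic mobility shift; 10 uM staurosporine served as full-inhibition wells.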

SMILES | IC50 [1] | IC50 (TBK1) | IC50 (IKKε)
COc1cc(C(=O)N2CCN(C)CC2)ccc1-c1cc2nccc(-c3ccc(N4CC[C@H](F)C4)c(C#N)c3)c2o1 [Compound 16, 2-((S)-3-Fluoro-pyrrolidin-1-yl)-5-{2-[2-methoxy-4-(4-methyl-piperazine-1-carbonyl)-phenyl]-furo[3,2-b]pyridin-7-yl}-benzonitrile] | 100 to 1000 nM | < 100 nM | < 100 nM
COc1cc(C(=O)N2CC[C@@H](F)C2)ccc1-c1cc2nccc(-c3ccc(OC4CCOCC4)c(C#N)c3)c2o1 [Compound 17, 5-{2-[4-((R)-3-Fluoro-pyrrolidine-1-carbonyl)-2-methoxy-phenyl]-furo[3,2-b]pyridin-7-yl}-2-(tetrahydro-pyran-4-yloxy)-benzonitrile] | 100 to 1000 nM | < 100 nM | < 100 nM
COc1cc(C(=O)N2CC3CCC(O)C3C2)ccc1-c1cc2nccc(-c3ccc(OC4CCOCC4)c(C#N)c3)c2o1 (stereo not drawn) [Compound 18, 5-{2-[4-(4-Hydroxy-hexahydro-cyclopenta[c]pyrrole-2-carbonyl)-2-methoxy-phenyl]-furo[3,2-b]pyridin-7-yl}-2-(tetrahydro-pyran-4-yloxy)-benzonitrile] | 100 to 1000 nM | < 100 nM | < 100 nM
COc1cc(C(=O)O)ccc1-c1cc2nccc(-c3ccc(OC4CCOCC4)c(C#N)c3)c2o1 [Compound 21] | 1000 to 5000 nM | < 100 nM | < 100 nM
COc1cc(C(=O)N(C)C)ccc1-c1cc2nccc(-c3ccc(N4CC[C@H](F)C4)c(C#N)c3)c2o1 [Compound 23, 4-{7-[3-Cyano-4-((S)-3-fluoro-pyrrolidin-1-yl)-phenyl]-furo[3,2-b]pyridin-2-yl}-3-methoxy-N,N-dimethyl-benzamide] | 100 to 1000 nM | < 100 nM | < 100 nM
COc1cc(C(=O)N2CCCC3(CCNC3)C2)ccc1-c1cc2nccc(-c3ccc(OC4CCOCC4)c(C#N)c3)c2o1 (stereo not drawn) [Compound 25, 5-{2-[4-(2,7-Diaza-spiro[4.5]decane-7-carbonyl)-2-methoxy-phenyl]-furo[3,2-b]pyridin-7-yl}-2-(tetrahydro-pyran-4-yloxy)-benzonitrile] | 100 to 1000 nM | < 100 nM | < 100 nM
COc1cc(C(=O)N2CCCCC2)ccc1-c1cc2nccc(-c3ccc(OC4CCOCC4)c(C#N)c3)c2o1 [Compound 27, 5-{2-[2-Methoxy-4-(piperidine-1-carbonyl)-phenyl]-furo[3,2-b]pyridin-7-yl}-2-(tetrahydro-pyran-4-yloxy)-benzonitrile] | 100 to 1000 nM | < 100 nM | < 100 nM
COc1cc(C(=O)N2CC3(CCCN3)C2)ccc1-c1cc2nccc(-c3ccc(OC4CCOCC4)c(C#N)c3)c2o1 [Compound 29, 5-{2-[4-(2,5-Diaza-spiro[3.4]octane-2-carbonyl)-2-methoxy-phenyl]-furo[3,2-b]pyridin-7-yl}-2-(tetrahydro-pyran-4-yloxy)-benzonitrile hydrochloride] | 100 to 1000 nM | < 100 nM | < 100 nM
COc1cc(C(=O)N2CC[C@@H](N(C)C)C2)ccc1-c1cc2nccc(-c3ccc(N4CC[C@H](F)C4)c(C#N)c3)c2o1 [Compound 33, 5-{2-[4-((R)-3-Dimethylamino-pyrrolidine-1-carbonyl)-2-methoxy-phenyl]-furo[3,2-b]pyridin-7-yl}-2-((S)-3-fluoro-pyrrolidin-1-yl)-benzonitrile] | 100 to 1000 nM | < 100 nM | < 100 nM

The remaining lines, values ahead:

IC50 [1] | IC50 (TBK1) | IC50 (IKKε) | SMILES
< 100 nM | < 100 nM | < 100 nM | COc1cc(C(=O)N2CCN(C)CC2)ccc1-c1cc2nccc(-c3ccc(OC4CCOCC4)c(C#N)c3)c2o1 [Compound 15, 5-{2-[2-Methoxy-4-(4-methyl-piperazine-1-carbonyl)-phenyl]-furo[3,2-b]pyridin-7-yl}-2-(tetrahydro-pyran-4-yloxy)-benzonitrile]
< 100 nM | < 100 nM | < 100 nM | COc1cc(C(=O)N2CC(N3CCCC3)C2)ccc1-c1cc2nccc(-c3ccc(OC4CCOCC4)c(C#N)c3)c2o1 [Compound 20, 5-{2-[2-Methoxy-4-(3-pyrrolidin-1-yl-azetidine-1-carbonyl)-phenyl]-furo[3,2-b]pyridin-7-yl}-2-(tetrahydro-pyran-4-yloxy)-benzonitrile]
< 100 nM | < 100 nM | < 100 nM | COc1cc(C(=O)N2CC(N(C)C)C2)ccc1-c1cc2nccc(-c3ccc(OC4CCOCC4)c(C#N)c3)c2o1 [Compound 24, 5-{2-[4-(3-Dimethylamino-azetidine-1-carbonyl)-2-methoxy-phenyl]-furo[3,2-b]pyridin-7-yl}-2-(tetrahydro-pyran-4-yloxy)-benzonitrile]
< 100 nM | < 100 nM | < 100 nM | COc1cc(C(=O)NC2CN(C)C2)ccc1-c1cc2nccc(-c3ccc(OC4CCOCC4)c(C#N)c3)c2o1 [Compound 28, 4-{7-[3-Cyano-4-(tetrahydro-pyran-4-yloxy)-phenyl]-furo[3,2-b]pyridin-2-yl}-3-methoxy-N-(1-methyl-azetidin-3-yl)-benzamide]
< 100 nM | < 100 nM | < 100 nM | COc1cc(C(=O)N(C)C)ccc1-c1cc2nccc(-c3ccc(OC4CCOCC4)c(C#N)n3)c2o1 [Compound 31, 4-{7-[6-Cyano-5-(tetrahydro-pyran-4-yloxy)-pyridin-2-yl]-furo[3,2-b]pyridin-2-yl}-3-methoxy-N,N-dimethyl-benzamide]
< 100 nM | < 100 nM | < 100 nM | COc1cc(C(=O)N2C[C@H]3C[C@@H](O)C[C@H]3C2)ccc1-c1cc2nccc(-c3ccc(OC4CCOCC4)c(C#N)c3)c2o1 [Compound 32, 5-{2-[4-((3aR,5R,6aS)-5-Hydroxy-hexahydro-cyclopenta[c]pyrrole-2-carbonyl)-2-methoxy-phenyl]-furo[3,2-b]pyridin-7-yl}-2-(tetrahydro-pyran-4-yloxy)-benzonitrile]
